Laboratory results as given in PubChem BioAssay (NCI).
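Compound exposure: 48 hours, 5 concentrations, 96-well plates. Here, GI50 denotes the concentration required for 50% inhibition of growth. Definition used: TGI = concentration required for complete inhibition of growth.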

Assays:
Assay in all cases: inhibition of tumour cell growth, NCI panel, 48 h
A549 NSCLC = system: A549 NSCLC
CAKI-1 renal = system: CAKI-1 renal
HOP-62 NSCLC = system: HOP-62 NSCLC
NCI-H226 lung = system: NCI-H226 lung
NCI-H460 lung = system: NCI-H460 lung
RXF 393 renal = system: RXF 393 renal
SK-MEL-28 melanoma = system: SK-MEL-28 melanoma
SW-620 colon = system: SW-620 colon
UACC-62 melanoma = system: UACC-62 melanoma
CCRF-CEM leukemia = system: CCRF-CEM leukemia

SMILES	GI50 (A549 NSCLC) [µM]	TGI (A549 NSCLC) [µM]	GI50 (CAKI-1 renal) [µM]	TGI (CAKI-1 renal) [µM]	GI50 (HOP-62 NSCLC) [µM]	TGI (HOP-62 NSCLC) [µM]	GI50 (NCI-H226 lung) [µM]	TGI (NCI-H226 lung) [µM]	GI50 (NCI-H460 lung) [µM]	TGI (NCI-H460 lung) [µM]	GI50 (RXF 393 renal) [µM]	TGI (RXF 393 renal) [µM]	GI50 (SK-MEL-28 melanoma) [µM]	TGI (SK-MEL-28 melanoma) [µM]	GI50 (SW-620 colon) [µM]	TGI (SW-620 colon) [µM]	GI50 (UACC-62 melanoma) [µM]	TGI (UACC-62 melanoma) [µM]	TGI (CCRF-CEM leukemia) [µM]	GI50 (CCRF-CEM leukemia) [µM]
CN(c1cccc(C(=O)O)c1)c1cc(O/N=[N+](\[O-])N(C)C)c([N+](=O)[O-])cc1[N+](=O)[O-]	> 100	> 100	> 100	> 100	46.8	> 100	> 100	> 100	> 100	> 100	> 100	> 100	85.1	> 100	> 100	> 100	> 100	> 100		
CC1(Cl)C(=O)NC(=O)N([C@H]2C[C@H](O)[C@@H](CO)O2)C1N=[N+]=[N-] (stereo partly specified)		> 100		> 100		> 100		> 100		> 100		> 100		> 100		> 100		> 100	> 100	
O=C(NCCCN1CCN(CCCNC(=O)c2cccc3ccccc23)CC1)c1cccc2ccccc12		> 100		> 100		> 100		> 100		> 100						> 100		> 100	> 100	
Cc1cc(NS(=O)(=O)c2ccc(NC(=O)c3ccc(Cl)c4c(Nc5ccc(S(=O)(=O)Nc6cc(C)on6)cc5)c5ccccc5nc34)cc2)no1		62.4		30.6		55				53.9						66.1		34.3	51.8	
COC(=O)c1csc(-c2csc(CCNC(=O)OC(C)(C)C)n2)n1		> 100				> 100		> 100		> 100		> 100		> 100		> 100		> 100	> 100	
COC(=O)NC1(NC(=O)OC)NC(=O)c2ccccc2N1		> 100		> 100		> 100		> 100		> 100				> 100		> 100		> 100	> 100	
CC(C)(C)OC(=O)N(CCCCN(CCCn1c2c(c3ccccc3c1=O)C(=O)c1ccccc1-2)C(=O)OC(C)(C)C)CCCn1c2c(c3ccccc3c1=O)C(=O)c1ccccc1-2	18.9	> 100	19.9	> 100	11	73.8	99.2	> 100	6.32	19.3			> 100	> 100	32.3	> 100	92.8	> 100		
CNc1c2ccccc2nc2occ(Cl)c12	31	> 100	12	33.2	40.7	> 100	32.9	> 100	21.8	72.1	19.7	50.8	48.7	> 100			33.3	> 100	84.5	27.1
Nc1[nH]nc(Nc2ccccc2)c1-c1nc2ccccc2s1	2.96	11.9			2.08	5.87	3.71	17	1.94	4.17			2.06	4.29	2.58	7.29	1.4	2.96	9.61	0.911
